Measurements taken from PubChem BioAssay AID1919008 (Molecular Pharmacology Branch, DTP, NCI, 2023).
Where “and” joins values, the source holds several entries; their conditions need not be identical. Equal entries are not always repeated.

Tested on: DMS-114 complex spheroids with HUVEC/MSC, growth % test/control
Experiment: Anticancer human tumor DMS-114 cell line growth inhibition [AhR];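 further: spheroids exposed to agents for 7 days before readout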;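 on viability, T/C: 100% = DMSO vehicle control wells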
Conditions: for viability, T/C: stronger effect = lower value
Text: Multicellular complex tumor spheroid response to aryl hydrocarbon receptor antagonists in combination with a variety of drugs and investigational agents in selected tumor cell lines
The current study was undertaken to assess response to aryl hydrocarbon receptor antagonists in combination with standard-of-care drugs and investigational agents in solid tumor complex spheroid models. Complex spheroids include a stromal component modeled by human endothelial cells (HUVEC) and fibroblasts modeled by human mesenchymal stem cells (MSCs). The concentration ranges selected for each drug and investigational agent were based upon clinically achievable concentrations if the clinical Cmax of the agent was known.
Compounds. The drugs and investigational agents: BAY 2416964 (NSC825713), GNF351 (NSC835774), CH-223191 (NSC835775), CPI-455 (NSC825282), aza-TdCyd (NSC777586), decitabine (NSC127716), belinostat (NSC758774), entinostat (NSC756642), pevonedistat (NSC761192), tazemetostat (NSC777109), talazoparib (NSC765396), olaparib (NSC753686), selinexor (NSC780203), nedisertib (M3814, NSC802822), bortezomib (NSC756655), venetoclax (NSC766270), doxorubicin (NSC123127), elimusertib (BAY189344, NSC800525), ceralasertib (AZD6738, NSC777638), TAK-243 (NSC785004), alisertib (NSC759677), etoposide (NSC141540), topotecan (NSC609699), eribulin (NSC707389), gemcitabine (NSC613327), carboplatin (NSC241240), cisplatin (NSC119875), and SN-38 (NSC673596) were obtained from the National Cancer Institute (NCI) Developmental Therapeutics Program Chemical Repository (32). The FDA-approved anticancer drug set is available from the Developmental Therapeutics Program at https://dtp.cancer.gov/organization/dscb/obtaining/available plates.htm. […] The stock solutions were prepared in dimethyl sulfoxide (DMSO, Sigma-Aldrich, St. Louis, MO, cat. D2650), except for the platinum compounds which were prepared in saline (Quality Biological, Gaithersburg, MD, cat. 114-055-101), at 800-fold the tested concentration and stored at -70 degrees C prior to their use. All drugs and investigational agents were tested over a range starting from a high concentration at or near the clinical Cmax and decreasing in half-log increments. If the clinical Cmax for an agent had not been determined, the highest concentration tested was 10 microM (Table 1).
Cell Culture. All cells were maintained in an incubator at 37 degrees C and 5% CO2 with 95% humidity. The PDC lines were cultured according to standard operating procedures established by the NCI PDMR (https://pdmr.cancer.gov). Briefly, all PDCs were thawed and cultured in Matrigel-coated flasks prepared with a working solution of 1X Ham's F-12 nutrient mix, without supplementation (Invitrogen, Waltham, MA, cat. 11765054), 100 U/mL penicillin-streptomycin (Invitrogen, cat. 15140122), and 2.5% Matrigel (Corning Inc., Corning, NY, cat. 354248) for the first three passages. All PDCs were cultured in complete DMEM/F-12 media containing advanced DMEM/F-12 (Invitrogen, cat. 12634028), 4.9% defined fetal bovine serum, heat inactivated (HyClone Laboratories Inc., Logan, UT, cat. SH30070.03HI), 389 ng/mL hydrocortisone (Sigma-Aldrich, cat. H4001), 9.7 ng/mL human EGF recombinant protein (Invitrogen, cat. PHG0313), 23.4 microg/mL adenine (Sigma-Aldrich, cat. A2786), 97.3 U/mL penicillin-streptomycin (Invitrogen, cat. 15140122), 1.9 mM L-glutamine (Invitrogen, cat. 25030081), and 9.7 microM Y-27632 dihydrochloride (Tocris Bioscience, Bristol, United Kingdom, cat. 1254). The PDCs were cultured in complete DMEM/F12 media without 10 microM Y-27632 dihydrochloride for at least two passages prior to the screen. The established cell lines NCI-H1341 and […] were cultured in DMEM/F-12, HEPES (Invitrogen, cat. 11330032), 5% defined fetal bovine serum (HyClone Laboratories Inc., cat. SH30070.03), ITS premix universal culture supplement [insulin (5 microg/mL), transferrin (5 microg/mL), and selenious acid (5 ng/mL)] […]

Nc1ncn(C2CC(O)C(CO)O2)c(=O)n1 (centres undefined) + Cc1ccccc1N=Nc1ccc(NC(=O)c2ccnn2C)c(C)c1
IC50 (curve of first compound, second compound 0.1 µM): > 1000 nM | IC50 (curve of first compound, second compound 0.316 µM): > 1000 nM | IC50 (curve of first compound, second compound 1 µM): > 1000 nM | IC50 (curve of first compound, second compound 3.16 µM): > 1000 nM | IC50 (curve of first compound, second compound 10 µM): > 1000 nM | viability, T/C (second compound 0.1 µM, first compound 0.00316 µM): 111% | viability, T/C (second compound 0.1 µM, first compound 0.01 µM): 105% | viability, T/C (second compound 0.1 µM, first compound 0.0316 µM): 103% | viability, T/C (second compound 0.1 µM, first compound 0.1 µM): 117% | viability, T/C (second compound 0.1 µM, first compound 0.316 µM): 104% | viability, T/C (second compound 0.1 µM, first compound 1 µM): 105% | viability, T/C (second compound 0.316 µM, first compound 0.00316 µM): 103% | viability, T/C (second compound 0.316 µM, first compound 0.01 µM): 95.4% | viability, T/C (second compound 0.316 µM, first compound 0.0316 µM): 104% | viability, T/C (second compound 0.316 µM, first compound 0.1 µM): 113% | viability, T/C (second compound 0.316 µM, first compound 0.316 µM): 96.3% | viability, T/C (second compound 0.316 µM, first compound 1 µM): 104% | viability, T/C (second compound 1 µM, first compound 0.00316 µM): 109% | viability, T/C (second compound 1 µM, first compound 0.01 µM): 104% | viability, T/C (second compound 1 µM, first compound 0.0316 µM): 108% | viability, T/C (second compound 1 µM, first compound 0.1 µM): 101% | viability, T/C (second compound 1 µM, first compound 0.316 µM): 95.4% | viability, T/C (second compound 1 µM, first compound 1 µM): 106% | viability, T/C (second compound 3.16 µM, first compound 0.00316 µM): 115% | viability, T/C (second compound 3.16 µM, first compound 0.01 µM): 96.2% | viability, T/C (second compound 3.16 µM, first compound 0.0316 µM): 95.7% | viability, T/C (second compound 3.16 µM, first compound 0.1 µM): 99.8% | viability, T/C (second compound 3.16 µM, first compound 0.316 µM): 99.7% | viability, T/C (second compound 3.16 µM, first compound 1 µM): 97.7% | viability, T/C (second compound 10 µM, first compound 0.00316 µM): 98.8% | viability, T/C (second compound 10 µM, first compound 0.01 µM): 98.1% | viability, T/C (second compound 10 µM, first compound 0.0316 µM): 92.1% | viability, T/C (second compound 10 µM, first compound 0.1 µM): 91% | viability, T/C (second compound 10 µM, first compound 0.316 µM): 105% | viability, T/C (second compound 10 µM, first compound 1 µM): 87.6%

O=C(C=Cn1cnc(-c2cc(C(F)(F)F)cc(C(F)(F)F)c2)n1)NNc1cnccn1
viability, T/C (compound 0.00949 µM): 106% and 109% and 113% | viability, T/C (compound 0.03 µM): 96.6% and 110% and 97.4% | viability, T/C (compound 0.0949 µM): 64.5% and 108% and 80.5% | viability, T/C (compound 0.3 µM): 40.7% and 87.3% and 37.6% | viability, T/C (compound 0.949 µM): 15% and 48.7% and 18.4% | viability, T/C (compound 3 µM): 5.6% and 17.9% and 7.48% | IC50 (curve of compound): 189 nM and 901 nM and 221 nM

CC1COCCN1c1cc(C2(S(C)(=N)=O)CC2)nc(-c2ccnc3[nH]ccc23)n1 (centres undefined)
viability, T/C (compound 0.0316 µM): 99.2% and 97.3% and 90.2% | viability, T/C (compound 0.1 µM): 114% and 106% and 101% | viability, T/C (compound 0.316 µM): 99.1% and 96.2% and 87.3% | viability, T/C (compound 1 µM): 98.6% and 98.9% and 78.1% | viability, T/C (compound 3.16 µM): 66.1% and 101% and 65.9% | viability, T/C (compound 10 µM): 27.7% and 76.4% and 33.8% | IC50 (curve of compound): 5130 nM and > 10000 nM and 5460 nM
